We go through 1 compound from patent US20090264664A1, “PREPARATION FOR EXTERNAL APPLICATION COMPRISING SALT OF MAST CELL DEGRANULATION INHIBITOR HAVING CARBOXYL GROUP WITH ORGANIC AMINE” (MEDRX CO., LTD., priority 2005, published 2009).

The series can be described thus: Solubility of tranilast in various solvents with or without triisopropanolamine (Example 3). Format: physicochemical. On the set-up: key: ∘: complete dissolution of tranilast; x: no dissolution of tranilast. The note with it: tranilast 1 wt %. On the procedure:
For preparation of test solutions (blending corresponding to 1 mol of triisopropanolamine), tranilast (1 wt %) and triisopropanolamine (0.56 wt %) were added, and glycerol, propylene glycol, butylene glycol, salicylic acid ethylene glycol, diethyl sebacate and isopropyl myristate were used as a balance to achieve 100 wt %, whereby each test solution was prepared.
For preparation of comparison control (without triisopropanolamine), tranilast (1 wt %) was added, and propylene glycol, salicylic acid ethylene glycol, diethyl sebacate and isopropyl myristate were used as a balance to achieve 100 wt %, whereby each test solution was prepared.
Using the test solutions and comparative controls prepared above, the solubility of tranilast in various solvents with or without triisopropanolamine was examined.

On to `CC(O)CN(CC(C)O)CC(C)O.COc1ccc(/C=C/C(=O)Nc2ccccc2C(=O)O)cc1OC` [1:1 salt with triisopropanolamine], for which the “solubility of tranilast in solvent” value by setting is: (butylene glycol) “∘”; (diethyl sebacate) “∘”; (glycerol) “∘”; (isopropyl myristate) “x”; (propylene glycol) “∘”; (salicyl acid ethylene glycol) “∘”.
